Tests used:
[1] = tested on: KYSE-150 (human esophageal squamous carcinoma cells); type: cell-based; conditions: 72 h
Excerpt: (§1) A part of the compounds of the examples of the present disclosure were subjected to a tumor cell proliferation inhibition test by using an MTT method (e.g. Pharmacological Research Method of New Drug, 2007: 242-243, edited by Lu Qiujun).
(§2) A cell strain was selected from KYSE-150 (human esophageal squamous carcinoma cells), MGC803 (human gastric carcinoma cells), and SHG44 (human glioma cells), and frozen and passaged by a pharmacological laboratory of Shanghai Institute of Pharmaceutical Industry. A culture solution was DMEM+10% FBS+double antibody.
(§3) In-vitro activity test: 100 μL of a cell suspension at a concentration of 4-5×10^4/mL was added to each well of a 96-well plate, and placed in a 5% CO2 incubator at 37° C. After 24 h, a sample solution was added at 10 μL/well, double duplicate wells were set, and a reaction was performed at 37° C. with 5% CO2 for 72 h. 20 μL of 5 mg/ml of an MTT solution was added into each well and reacted for 4 h, a dissolving solution was added at 100 μL/well, the mixture was placed in an incubator, and after dissolution, an OD value at 570 nm was measured with a full-wavelength multifunctional microplate reader. An inhibition rate (IR) and a median inhibitory concentration (IC50) were calculated by using an Excel software.
(§4) The inhibition rate (IR %) of the drug on cell growth was calculated according to the following equation: […]

[2] = tested on: MGC803 (human gastric carcinoma cells); type: cell-based; conditions: 72 h
Excerpt: as §1, §2, §3, §4

[3] = tested on: SHG44 (human glioma cells); type: cell-based; conditions: 72 h
Excerpt: as §1, §2, §3, §4

hERG potassium channel = hERG potassium channel (Homo sapiens, UniProt Q12809); assay: cell-based
hERG potassium channel, sequence (Q12809 whole entry): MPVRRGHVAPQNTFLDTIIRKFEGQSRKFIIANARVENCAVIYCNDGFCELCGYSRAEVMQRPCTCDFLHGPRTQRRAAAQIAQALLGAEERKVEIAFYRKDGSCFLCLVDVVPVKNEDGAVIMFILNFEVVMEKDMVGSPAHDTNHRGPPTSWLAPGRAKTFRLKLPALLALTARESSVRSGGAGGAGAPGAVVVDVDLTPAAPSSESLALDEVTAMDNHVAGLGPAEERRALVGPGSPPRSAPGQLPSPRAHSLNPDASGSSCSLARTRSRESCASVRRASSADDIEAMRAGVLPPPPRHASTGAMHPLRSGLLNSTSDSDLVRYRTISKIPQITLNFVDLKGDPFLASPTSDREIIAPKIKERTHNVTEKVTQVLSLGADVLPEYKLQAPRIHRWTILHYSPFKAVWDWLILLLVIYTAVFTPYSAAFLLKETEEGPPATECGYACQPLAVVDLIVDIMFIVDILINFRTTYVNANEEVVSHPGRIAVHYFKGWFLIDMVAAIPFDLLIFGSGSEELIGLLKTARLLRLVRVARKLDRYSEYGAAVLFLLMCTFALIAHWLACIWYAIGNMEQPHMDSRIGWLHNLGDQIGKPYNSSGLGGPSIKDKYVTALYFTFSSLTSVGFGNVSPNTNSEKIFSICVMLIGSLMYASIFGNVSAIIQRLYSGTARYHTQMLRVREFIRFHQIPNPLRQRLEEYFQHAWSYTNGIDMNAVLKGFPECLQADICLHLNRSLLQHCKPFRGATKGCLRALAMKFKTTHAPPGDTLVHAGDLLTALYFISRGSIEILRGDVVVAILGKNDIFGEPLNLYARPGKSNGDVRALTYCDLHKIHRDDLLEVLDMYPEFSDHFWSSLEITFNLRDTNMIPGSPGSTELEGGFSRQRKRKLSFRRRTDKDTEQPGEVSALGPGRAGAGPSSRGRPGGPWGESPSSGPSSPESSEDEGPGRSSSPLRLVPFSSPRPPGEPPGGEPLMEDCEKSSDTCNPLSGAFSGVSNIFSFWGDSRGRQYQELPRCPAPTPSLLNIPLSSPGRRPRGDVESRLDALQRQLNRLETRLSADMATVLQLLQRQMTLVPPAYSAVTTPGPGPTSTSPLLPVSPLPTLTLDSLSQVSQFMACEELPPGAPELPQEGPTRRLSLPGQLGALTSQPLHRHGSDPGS
Experimental: CHO-hERG cells were cultured in a 175-cm^2 culture flask. After a cell density reached a culture solution was removed, and the cells were washed once with 7 mL of phosphate buffered saline (PBS) and digested with 3 mL of detachin. After the complete digestion, 7 mL of a culture solution was added for neutralization, the mixture was centrifuged, a supernatant was sucked away, and then 5 mL of the culture solution was added for resuspension so as to ensure that the cell density was 2-5×10^6/mL.
Forming processes of single-cell high-impedance sealing and whole-cell mode were both automatically completed by a Qpatch instrument. After a whole-cell recording mode was obtained, cells were clamped at −80 millivolts. Before a depolarization stimulation of +40 millivolt for 5 seconds was given, a preset voltage of −50 millivolts was firstly given for 50 milliseconds, then repolarization was performed to −50 millivolt and maintained for 5 seconds, and then the voltage returned to −80 millivolts. […] At least 3 cells (n≥3) were tested per concentration.
20 mM of a compound stock was diluted in DMSO, and 10 μL of 20 mM of the compound stock was added to 20 μL of a DMSO solution and triply serially diluted to 6 DMSO concentrations. […] Experimental data was analyzed by a GraphPad Prism 5.0 software.

[4] = tested on: HCT116 (human colon cancer cells); assay: Tumor cell proliferation inhibition test, CCK-8 method (Example 21); type: cell-based; conditions: Homo sapiens, HCT-116; CCK-8, 72 h, Table 3; read-out: IC50 HCT116
Experimental: (§5) A part of the compounds prepared in the examples of the present disclosure were subjected to a tumor cell proliferation inhibition test by using a CCK-8 method. Cell lines HCT116 (human colon cancer cells), MGC803 (human gastric cancer cells), and MIA PACA-2 (human pancreatic cancer cells) were purchased from Shanghai Meixuan Technology Co., Ltd. Samples (a part of the compounds prepared in the examples) were dissolved in DMSO (Merck), prepared into a concentration of 10 mM, and finally triply diluted in DMEM or McCoy's 5A 1640 medium to 8 concentration gradients. A cell culture solution was collected when a cell culture met a test requirement, 10 μL of the cell culture solution was uniformly coated on a cell counting plate, cells were counted for 3 times under a microscope, and a cell density was calculated by taking an average value; and a 96-well plate (Corning, #3599) was taken, 200 μL of the cell culture solution was added into each well for cell inoculation at a cell concentration of 6×10^3 cells per well, and the inoculated 96-well plate was incubated in a cell incubator containing 5% CO2 at 37° C. for 24 h. An old culture medium was removed by suction, 200 μL of the triply diluted sample DMEM or McCoy's 5A 1640 medium at an initial concentration of 10 μmol/L was added to each well, the DMSO content was controlled to be 1%, three duplicate wells were set, PBS was used as a blank control, and the plate was incubated in the incubator for 72 h. The original DMEM or McCoy's 5A 1640 medium in the 96-well plate and a PBS buffer in a final row were sucked out, a prepared CCK-8 solution (90% DMEM or McCoy's 5A 1640 medium+10% CCK-8) was added, the mixture was incubated in an incubator, and an absorbance was read by using a Biotek microplate reader. Cell growth inhibition rate IC %=(blank control well OD value−administration well OD value)/blank control well OD value×100%.

[5] = tested on: MGC803 (human gastric cancer cells); assay: as above; type: cell-based; conditions: Homo sapiens, MGC-803; CCK-8, 72 h, Table 3; read-out: IC50 MGC803
Experimental: as §5

[6] = tested on: MIA PACA-2 (human pancreatic cancer cells); assay: as above; type: cell-based; conditions: Homo sapiens, MIA PaCa-2; CCK-8, 72 h, Table 3; read-out: IC50 MIA PACA-2
Experimental: as §5

IC50 [4] [nM]	IC50 [5] [nM]	IC50 [6] [nM]	SMILES	IC50 [1] [nM]	IC50 [2] [nM]	IC50 [3] [nM]	IC50 (hERG potassium channel) [nM]
–	–	–	COc1cc(C(=O)NCCOCCOCCOCCOCCC(=O)N[C@@H](C(=O)N[C@@H](CCCNC(N)=O)C(=O)Nc2ccc(COC(=O)N3CCN(C(=O)O[C@H]4CC[C@@]5(C)[C@H](CC[C@@H]6[C@@H]5[C@H](O)C(=O)[C@]5(C)[C@@H](c7ccc(=O)oc7)CC[C@]65O)C4)CC3)cc2)C(C)C)ccc1NC(=O)[C@@H]1N[C@@H](CC(C)(C)C)[C@](C#N)(c2ccc(Cl)cc2F)[C@H]1c1cccc(Cl)c1F [Compound I-1]	40	9	3	> 40000
110	1090	> 10000	COc1cc(C(=O)O)ccc1NC(=O)[C@@H]1N[C@@H](CC(C)(C)C)[C@](C#N)(c2ccc(Cl)cc2F)[C@H]1c1cccc(Cl)c1F [Idasanutlin, reference compound]	–	–	–	–
